In patent US12319672B2, “Alpha-D-galactopyranoside derivatives” (Idorsia Pharmaceuticals Ltd, priority 2019, dated 2025):

Assays:
[1] = molecular target: human Gal-1 (hGal-1); assay: Competitive binding assay: binding of biotinylated hGal-1 to microplate-adsorbed asialofetuin (ASF); conditions: Activities on hGal-1; mean values of several measurements
Summary of the method: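 Spectrophotometric readout (streptavidin-peroxidase, ABTS) of biotinylated galectin retained on ASF-coated wells. Biotinylated hGal-1 or hGal-3, 300-1000 ng/mL, co-incubated with test compound 3 h at 4° C, then washed. Mean IC50 from repeat runs.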

[2] = molecular target: human Gal-3 (hGal-3) (Homo sapiens (Human), UniProt P17931); assay: Competitive binding assay: binding of biotinylated hGal-3 to microplate-adsorbed asialofetuin (ASF); conditions: Activity on hGal-3; mean values of several measurements
Summary of the method: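 Compounds in DMSO dilution series competed with 300-1000 ng/mL biotinylated hGal-3 for asialofetuin adsorbed on the plate (3 h, 4° C). Streptavidin-peroxidase at 80 ng/mL (1 h, 4° C) with ABTS gave a spectrophotometric read-out, and IC50 was reported as the mean of repeat runs.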

Chain of human Gal-1 (hGal-1) (P09382 2-135 limits assumed): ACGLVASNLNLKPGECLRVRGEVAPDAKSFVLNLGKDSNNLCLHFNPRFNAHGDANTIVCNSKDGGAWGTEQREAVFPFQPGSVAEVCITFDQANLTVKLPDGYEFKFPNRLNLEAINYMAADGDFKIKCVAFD
Chain of human Gal-3 (hGal-3) (P17931 whole entry): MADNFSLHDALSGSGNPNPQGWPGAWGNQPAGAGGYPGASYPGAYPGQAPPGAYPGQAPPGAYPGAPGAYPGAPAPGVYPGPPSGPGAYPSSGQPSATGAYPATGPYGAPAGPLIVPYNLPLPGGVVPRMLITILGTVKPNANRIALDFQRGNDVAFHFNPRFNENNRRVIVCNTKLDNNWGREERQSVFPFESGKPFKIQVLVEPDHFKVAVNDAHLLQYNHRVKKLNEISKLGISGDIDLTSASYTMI

Row | IC50 [1] | IC50 [2] | Structure (SMILES)
1 | 780 nM | 110 nM | CO[C@@H]1[C@@H](n2cc(-c3ccc(F)c(F)c3F)nn2)[C@@H](O)[C@@H](CO)O[C@@H]1Cc1cc(C(C)(C)O)no1 [Example 2.61, (2R,3R,4S,5R,6R)-2-(hydroxymethyl)-6-((3-(2-hydroxypropan-2-yl)isoxazol-5-yl)methyl)-5-methoxy-4-(4-(2,3,4-trifluorophenyl)-1H-1,2,3-triazol-1-yl)tetrahydro-2H-pyran-3-ol]
2 | 3990 nM | 230 nM | CC(=O)O[C@@H]1[C@@H](n2cc(-c3cc(F)c(F)c(F)c3)nn2)[C@@H](O)[C@@H](CO)O[C@@H]1CC1=NOC(C2CCN(C(C)=O)CC2)C1 (mixture of isomers) [Example 3.23, (2R,3R,4S,5R,6R)-2-(((RS)-5-(1-acetylpiperidin-4-yl)-4,5-dihydroisoxazol-3-yl)methyl)-5-hydroxy-6-(hydroxymethyl)-4-(4-(3,4,5-trifluorophenyl)-1H-1,2,3-triazol-1-yl)tetrahydro-2H-pyran-3-yl acetate]
3 | 15100 nM | 1860 nM | CO[C@@H]1[C@@H](n2cc(-c3cc(F)c(F)c(F)c3)nn2)[C@@H](O)[C@@H](CO)O[C@@H]1C[C@H]1CC(C2CCNCC2)=NO1 [Example 3.07, (2R,3R,4S,5R,6R)-2-(hydroxymethyl)-5-methoxy-6-(((R)-3-(piperidin-4-yl)-4,5-dihydroisoxazol-5-yl)methyl)-4-(4-(3,4,5-trifluorophenyl)-1H-1,2,3-triazol-1-yl)tetrahydro-2H-pyran-3-ol]
4 | 9690 nM | 310 nM | CO[C@@H]1[C@@H](n2cc(-c3ccc(C)c(F)c3F)nn2)[C@@H](O)[C@@H](CO)O[C@@H]1Cc1cc(C(O)(c2ccccn2)C2CC2)on1 (stereo partly drawn) [Ex 1.317]
5 | 13500 nM | 1240 nM | CO[C@@H]1[C@@H](n2cc(-c3cc(F)c(F)c(F)c3)nn2)[C@@H](O)[C@@H](CO)O[C@@H]1Cn1cc(-c2cccc(F)c2)nn1 [Example 4.01, (2R,3R,4S,5R,6R)-6-((4-(3-fluorophenyl)-1H-1,2,3-triazol-1-yl)methyl)-2-(hydroxymethyl)-5-methoxy-4-(4-(3,4,5-trifluorophenyl)-1H-1,2,3-triazol-1-yl)tetrahydro-2H-pyran-3-ol]
6 | 250 nM | 68 nM | CO[C@@H]1[C@@H](n2cc(-c3ccc(C)c(F)c3F)nn2)[C@@H](O)[C@@H](CO)O[C@@H]1Cc1cc(C2CCNC(=O)CC2)no1 (stereo partly drawn) [Ex 1.348]
7 | 4400 nM | 230 nM | C#Cc1ccc(-c2cn([C@H]3[C@@H](O)[C@@H](CO)O[C@H](Cc4cc(C(C)(C)C)on4)[C@@H]3OC)nn2)c(F)c1F [Example 2.47, (2R,3R,4S,5R,6R)-6-((5-(tert-butyl)isoxazol-3-yl)methyl)-4-(4-(4-ethynyl-2,3-difluorophenyl)-1H-1,2,3-triazol-1-yl)-2-(hydroxymethyl)-5-methoxytetrahydro-2H-pyran-3-ol]
8 | 6410 nM | 340 nM | CO[C@@H]1[C@@H](n2cc(-c3cc(F)c(F)c(F)c3)nn2)[C@@H](O)[C@@H](CO)O[C@@H]1C[C@H]1CN(C2CCN(C(=O)OC(C)(C)C)CC2)C(=O)O1 [Example 5.14, tert-butyl 4-((S)-5-(((2R,3R,4S,5R,6R)-5-hydroxy-6-(hydroxymethyl)-3-methoxy-4-(4-(3,4,5-trifluorophenyl)-1H-1,2,3-triazol-1-yl)tetrahydro-2H-pyran-2-yl)methyl)-2-oxooxazolidin-3-yl)piperidine-1-carboxylate]
9 | 1160 nM | 110 nM | CO[C@@H]1[C@@H](n2cc(-c3cc(F)c(F)c(F)c3)nn2)[C@@H](O)[C@@H](CO)O[C@@H]1Cc1cc(C(C)(C)CO)no1 [Ex 1.207]
10 | 590 nM | 69 nM | CO[C@@H]1[C@@H](n2cc(-c3ccc(F)c(F)c3F)nn2)[C@@H](O)[C@@H](CO)O[C@@H]1Cc1cc(C2(C)CCCC2)no1 [Ex 1.287]
11 | 15000 nM | 240 nM | CO[C@@H]1[C@@H](n2cc(-c3cc(F)c(F)c(F)c3)nn2)[C@@H](O)[C@@H](CO)O[C@@H]1Cn1cc(C(C)(C)O)nn1 [Example 4.44, (2R,3R,4S,5R,6R)-2-(hydroxymethyl)-6-((4-(2-hydroxypropan-2-yl)-1H-1,2,3-triazol-1-yl)methyl)-5-methoxy-4-(4-(3,4,5-trifluorophenyl)-1H-1,2,3-triazol-1-yl)tetrahydro-2H-pyran-3-ol]
12 | 590 nM | 46 nM | CO[C@@H]1[C@@H](n2cc(-c3cc(F)c(F)c(F)c3)nn2)[C@@H](O)[C@@H](CO)O[C@@H]1Cc1cc(C2CCN(C(C)=O)CC2)on1 [Example 3.21, 1-(4-(3-(((2R,3R,4S,5R,6R)-5-hydroxy-6-(hydroxymethyl)-3-methoxy-4-(4-(3,4,5-trifluorophenyl)-1H-1,2,3-triazol-1-yl)tetrahydro-2H-pyran-2-yl)methyl)isoxazol-5-yl)piperidin-1-yl)ethan-1-one]
13 | 2620 nM | 140 nM | CNC(=O)CO[C@@H]1[C@@H](n2cc(-c3cc(F)c(F)c(F)c3)nn2)[C@@H](O)[C@@H](CO)O[C@@H]1CC1CC(C2CCN(C(=O)OC(C)(C)C)CC2)=NO1 (mixture of isomers) [Example 2.35, tert-butyl 4-((RS)-5-(((2R,3R,4S,5R,6R)-5-hydroxy-6-(hydroxymethyl)-3-(2-(methylamino)-2-oxoethoxy)-4-(4-(3,4,5-trifluorophenyl)-1H-1,2,3-triazol-1-yl)tetrahydro-2H-pyran-2-yl)methyl)-4,5-dihydroisoxazol-3-yl)piperidine-1-carboxylate]
14 | 920 nM | 69 nM | CO[C@@H]1[C@@H](n2cc(-c3cc(F)c(F)c(F)c3)nn2)[C@@H](O)[C@@H](CO)O[C@@H]1Cc1cc(C2CCN(C(=O)N3CCCC3)CC2)on1 [Example 3.67, (4-(3-(((2R,3R,4S,5R,6R)-5-hydroxy-6-(hydroxymethyl)-3-methoxy-4-(4-(3,4,5-trifluorophenyl)-1H-1,2,3-triazol-1-yl)tetrahydro-2H-pyran-2-yl)methyl)isoxazol-5-yl)piperidin-1-yl)(pyrrolidin-1-yl)methanone]
15 | 560 nM | 69 nM | CO[C@@H]1[C@@H](n2cc(-c3cc(F)c(F)c(F)c3)nn2)[C@@H](O)[C@@H](CO)O[C@@H]1Cc1cc(C2CCN(S(=O)(=O)N3CCCCC3)CC2)on1 [Example 3.63, (2R,3R,4S,5R,6R)-2-(hydroxymethyl)-5-methoxy-6-((5-(1-(piperidin-1-ylsulfonyl)piperidin-4-yl)isoxazol-3-yl)methyl)-4-(4-(3,4,5-trifluorophenyl)-1H-1,2,3-triazol-1-yl)tetrahydro-2H-pyran-3-ol]
16 | 480 nM | 3620 nM | CO[C@@H]1[C@@H](n2cc(-c3ccccc3)nn2)[C@@H](O)[C@@H](CO)O[C@@H]1CC1CC(C2CCN(C(=O)OC(C)(C)C)CC2)=NO1 (stereo partly drawn) [Ex 1.310]
17 | 42100 nM | 630 nM | CO[C@@H]1[C@@H](n2cc(-c3cc(F)c(F)c(F)c3)nn2)[C@@H](O)[C@@H](CO)O[C@@H]1CC1CN(CC2CCN(C(=O)OC(C)(C)C)CC2)C(=O)O1 (mixture of isomers) [Example 5.16, tert-butyl 4-(((RS)-5-(((2R,3R,4S,5R,6R)-5-hydroxy-6-(hydroxymethyl)-3-methoxy-4-(4-(3,4,5-trifluorophenyl)-1H-1,2,3-triazol-1-yl)tetrahydro-2H-pyran-2-yl)methyl)-2-oxooxazolidin-3-yl)methyl)piperidine-1-carboxylate]
18 | 64800 nM | 180 nM | CO[C@@H]1[C@@H](n2cc(-c3ccc(C)c(F)c3F)nn2)[C@@H](O)[C@@H](CO)O[C@@H]1Cc1cc(C2CCCCC2)on1 [Ex 1.177]
19 | 6290 nM | 450 nM | CC(C)(C)OC(=O)N1CCC(C2CC(C[C@H]3O[C@H](CO)[C@H](O)[C@H](n4cc(-c5cc(F)c(F)c(F)c5)nn4)[C@H]3O)=NO2)CC1 (stereo partly drawn) [Ex 1.41]
20 | 140 nM | 35 nM | CO[C@@H]1[C@@H](n2cc(-c3cc(F)c(F)c(F)c3)nn2)[C@@H](O)[C@@H](CO)O[C@@H]1Cc1cn(C2CCN(C(=O)OC(C)(C)C)CC2)nn1 [Example 4.05, tert-butyl 4-(4-(((2R,3R,4S,5R,6R)-5-hydroxy-6-(hydroxymethyl)-3-methoxy-4-(4-(3,4,5-trifluorophenyl)-1H-1,2,3-triazol-1-yl)tetrahydro-2H-pyran-2-yl)methyl)-1H-1,2,3-triazol-1-yl)piperidine-1-carboxylate]
21 | 3760 nM | 1080 nM | CO[C@@H]1[C@@H](n2cc(-c3cc(F)c(F)c(F)c3)nn2)[C@@H](O)[C@@H](CO)O[C@@H]1CC1=NOC(C(C)(C)C)C1 (stereo partly drawn) [Ex 1.66]
22 | 5390 nM | 560 nM | CO[C@@H]1[C@@H](n2cc(-c3cc(F)c(F)c(F)c3)nn2)[C@@H](O)[C@@H](CO)O[C@@H]1C[C@@H]1CC(C2CCCCC2)=NO1 [Ex 1.10]
23 | 2720 nM | 120 nM | Cc1ccc(-c2cn([C@H]3[C@@H](O)[C@@H](CO)O[C@H](Cc4cc(C(C)(C)C)no4)[C@@H]3OCc3cnco3)nn2)c(F)c1F [Example 2.55, (2R,3R,4S,5R,6R)-6-((3-(tert-butyl)isoxazol-5-yl)methyl)-4-(4-(2,3-difluoro-4-methylphenyl)-1H-1,2,3-triazol-1-yl)-2-(hydroxymethyl)-5-(oxazol-5-ylmethoxy)tetrahydro-2H-pyran-3-ol]

Row | Structure (SMILES) | IC50 [1] | IC50 [2]
24 | CCCCO[C@@H]1[C@@H](n2cc(-c3cc(F)c(F)c(F)c3)nn2)[C@@H](O)[C@@H](CO)O[C@@H]1Cc1cc(C2CCN(C(=O)OC(C)(C)C)CC2)on1 [Example 2.20, tert-butyl 4-(3-(((2R,3R,4S,5R,6R)-3-butoxy-5-hydroxy-6-(hydroxymethyl)-4-(4-(3,4,5-trifluorophenyl)-1H-1,2,3-triazol-1-yl)tetrahydro-2H-pyran-2-yl)methyl)isoxazol-5-yl)piperidine-1-carboxylate] | 2030 nM | 390 nM
